Data on seven compounds can be found in patent US10844045B2, “Pharmaceutical salts N-(2-(2-(dimethylamino)ethoxy)-4-methoxy-5-((4-(1-methyl-1H-indol-3-yl)pyrimidin-2-yl)amino)phenyl)acrylamide and crystalline forms thereof” (Beta Pharma, Inc., priority 2016, dated 2020).

Where a name gives a salt, the structure may show the parent alone. Read-outs that look alike come from different tables or passages of the source.

The nature of data set [1]: Dynamic vapor sorption (DVS). Format: physicochemical. Conditions: for hygroscopicity classification according to DVS results / weight gain (DVS): from 0 to 80% RH.
The nature of a further data set: Solubility of salt forms. Conditions: for Final pH: final pH of the solubility test. Format: physicochemical.
In data set [2] the test system is kinase domain of the T790M double mutant. Conditions: cited from earlier work.

For `C=CC(=O)Nc1cc(Nc2nccc(-c3cn(C)c4ccccc34)n2)c(OC)cc1OCCN(C)C` [Compound 2, N-(2-(2-(Dimethylamino)ethoxy)-4-methoxy-5-((4-(1-methyl-1H-indol-3-yl)pyrimidin-2-yl)amino)phenyl)acrylamide methanesulfonate (1:1)], in data set [1], the “hygroscopicity classification according to DVS results” value was “hygroscopic” and the “weight gain (DVS)” value came to 14.44%. Further, the “DVS Sorption” value in data set [1] (listed as 2 (Form 2A)) is listed as 0.91%. Moreover, in “Solubility of salt forms”, the Solubility is above 53000 µg/mL and the “Final pH” value amounted to 4.9.

With `C=CC(=O)Nc1cc(Nc2nccc(-c3cn(C)c4ccccc34)n2)c(OC)cc1OCCN(C)C` [3 (Form 2B), N-(2-(2-(Dimethylamino)ethoxy)-4-methoxy-5-((4-(1-methyl-1H-indol-3-yl)pyrimidin-2-yl)amino)phenyl)acrylamide methanesulfonate (1:1)], in data set [1], the “DVS Sorption” value was found to be 14.44%.

Take `C=CC(=O)Nc1cc(Nc2nccc(-c3cn(C)c4ccccc34)n2)c(OC)cc1OCCN(C)C.Cl` [Compound 3, N-(2-(2-(Dimethylamino)ethoxy)-4-methoxy-5-((4-(1-methyl-1H-indol-3-yl)pyrimidin-2-yl)amino)phenyl)acrylamide hydrochloride (1:1)]: in data set [1], the “DVS Sorption” value came out at 0.76%, the “hygroscopicity classification according to DVS results” value is “slightly hygroscopic” and the “weight gain (DVS)” value is on record as 0.76%. For the same compound, the “Final pH” value in the data set “Solubility of salt forms” stood at 6.0. The Solubility in the data set “Solubility of salt forms” (read-out: Solubility) was found to be 810 µg/mL.

With `C=CC(=O)Nc1cc(Nc2nccc(-c3cn(C)c4ccccc34)n2)c(OC)cc1OCCN(C)C` [Compound 4, N-(2-(2-(Dimethylamino)ethoxy)-4-methoxy-5-((4-(1-methyl-1H-indol-3-yl)pyrimidin-2-yl)amino)phenyl)acrylamide sulfate (1:1)], in data set [1], the “DVS Sorption” value came out at 10.60%, the “hygroscopicity classification according to DVS results” value is “hygroscopic” and the “weight gain (DVS)” value is recorded as 10.60%. In the data set “Solubility of salt forms”, the Solubility was above 79000 µg/mL and the “Final pH” value stood at 2.4.

Take `C=CC(=O)Nc1cc(Nc2nccc(-c3cn(C)c4ccccc34)n2)c(OC)cc1OCCN(C)C.Cc1ccc(S(=O)(=O)O)cc1` [Compound 5, N-(2-(2-(Dimethylamino)ethoxy)-4-methoxy-5-((4-(1-methyl-1H-indol-3-yl)pyrimidin-2-yl)amino)phenyl)acrylamide p-toluenesulfonate (1:1)]: in data set [1], the “DVS Sorption” value worked out at 1.86%, the “hygroscopicity classification according to DVS results” value was “slightly hygroscopic” and the “weight gain (DVS)” value is recorded as 1.86%. Moreover, the “Final pH” value in the data set “Solubility of salt forms” came to 5.8. Moreover, in the data set “Solubility of salt forms” (read-out: Solubility), the Solubility was 530 µg/mL.

Take `C=CC(=O)Nc1cc(Nc2nccc(-c3cn(C)c4ccccc34)n2)c(OC)cc1OCCN(C)C` [Compound 1, N-(2-(2-(Dimethylamino)ethoxy)-4-methoxy-5-((4-(1-methyl-1H-indol-3-yl)pyrimidin-2-yl)amino)phenyl)acrylamide]: the “inhibition of the kinase domain of the T790M double mutant” value in data set [2] is on record as “effectively inhibits”. In “Solubility of salt forms”, the Solubility stood at 50 µg/mL and the “Final pH” value stood at 6.2.

As to `C=CC(=O)Nc1cc(Nc2nccc(-c3cn(C)c4ccccc34)n2)c(OC)cc1OCCN(C)C` [Compound 6, N-(2-(2-(Dimethylamino)ethoxy)-4-methoxy-5-((4-(1-methyl-1H-indol-3-yl)pyrimidin-2-yl)amino)phenyl)acrylamide citrate (1:1)], in the data set “Solubility of salt forms”, the Solubility worked out at 6900 µg/mL and the “Final pH” value was determined as 4.6.

A word on the Solubility: it is the concentration that dissolves in the medium under given conditions.
